In the OligoGym collection:
After the bases stand the sugars from the 5' end (letter, count) and the backbone: PS all phosphorothioate, else s phosphorothioate and o phosphodiester by linkage. Methylation of C is not given here. e = 2'-O-(2-methoxyethyl) (MOE); k = constrained ethyl (cEt); d = 2'-deoxy (DNA); m = 2'-O-methyl

Target: HSD17B13
Conditions: ASO, HepaRG

Question: For ATAACCATAGGACATG (sugars k3 d10 k3, PS), which target mRNA inhibition (0.02 µM) is on record?
Answer: 37%

Question: What about the target mRNA inhibition (0.078 µM) of the same sequence?
Answer: 38%

Question: What about the target mRNA inhibition (0.313 µM) of the same sequence?
Answer: 58%

Question: What about the target mRNA inhibition (1 µM) of the same sequence?
Answer: 70%

Question: What about the target mRNA inhibition (1.25 µM) of the same sequence?
Answer: 84%

Question: What about the target mRNA inhibition (5 µM) of the same sequence?
Answer: 92%

Question: For ATAACTCTATTGATTG (sugars k3 d10 k3, PS), which target mRNA inhibition (1 µM) is on record?
Answer: 39%

Question: For ATAAGAGATGAGTAGG (sugars k3 d10 k3, PS), which target mRNA inhibition (1 µM) is on record?
Answer: 56%

Question: ATAATACATTAGCAAG (sugars k3 d10 k3, PS) was tested. Which target mRNA inhibition (1 µM) did it give?
Answer: 7%

Question: With ATAATCTTGTGCTTGG (sugars k3 d10 k3, PS) as the sequence, how does the target mRNA inhibition (1 µM) read?
Answer: 36%

Question: How did the target mRNA inhibition (1 µM) turn out when ATAATTACAACCTGGT (sugars k3 d10 k3, PS) was run?
Answer: 44%

Question: Which target mRNA inhibition (1 µM) does the source give for ATACATACCACTCTTC (sugars k3 d10 k3, PS) here?
Answer: 18%

Question: For “ATACATTAGCAAGCTA (sugars k3 d1 m1 d8 k3, PS)”, which target mRNA inhibition (1 µM) is on record?
Answer: 36%

Question: With ATACATTAGCAAGCTA (sugars k3 d10 k3, PS) as the sequence, how does the target mRNA inhibition (1 µM) read?
Answer: 69%

Question: For ATACGCATGCGCAGTG (sugars k3 d10 k3, PS), which target mRNA inhibition (1 µM) is on record?
Answer: 38%

Question: For ATACTGAAATTGATAC (sugars k3 d10 k3, PS), which target mRNA inhibition (1 µM) is on record?
Answer: 11%

Question: Which target mRNA inhibition (1 µM) does the source give for ATAGAACTAGAACTCC (sugars k3 d10 k3, PS) here?
Answer: 22%

Question: For “ATAGAGTCGGTCACCT (sugars kkdddddddddkekek, PS)”, which target mRNA inhibition (1 µM) is on record?
Answer: 56%

Question: For “ATAGAGTTGCACCGTT (sugars kkdddddddddkekek, PS)”, which target mRNA inhibition (1 µM) is on record?
Answer: 45%

Question: For ATAGATCCTTTTTTGG (sugars k3 d10 k3, PS), which target mRNA inhibition (1 µM) is on record?
Answer: 6%

Question: Which target mRNA inhibition (1 µM) does the source give for “ATAGCAAGCCAACAGA (sugars kkdddddddddkekek, PS)” here?
Answer: 23%

Question: For ATAGCTAAGTATACTT (sugars k3 d10 k3, PS), which target mRNA inhibition (1 µM) is on record?
Answer: 0%

Question: ATAGGAGAGTCTTTCA (sugars k3 d10 k3, PS) was tested. Which target mRNA inhibition (1 µM) did it give?
Answer: 77%

Question: ATAGGCTAAAATGGTC (sugars k3 d10 k3, PS) was tested. Which target mRNA inhibition (1 µM) did it give?
Answer: 61%

Question: For ATAGTAATCACAAGTA (sugars k3 d10 k3, PS), which target mRNA inhibition (1 µM) is on record?
Answer: 56%

Question: How did the target mRNA inhibition (1 µM) turn out when ATAGTCCATGCAAAAG (sugars k3 d10 k3, PS) was run?
Answer: 43%

Question: With ATAGTTATCTTCTCAC (sugars k3 d10 k3, PS) as the sequence, how does the target mRNA inhibition (1 µM) read?
Answer: 48%

Question: ATATAACATGGCTGGC (sugars k3 d10 k3, PS) was tested. Which target mRNA inhibition (1 µM) did it give?
Answer: 29%

Question: Which target mRNA inhibition (1 µM) does the source give for ATATACATCAACTCCT (sugars k3 d10 k3, PS) here?
Answer: 43%

Question: With ATATACTAGGATTAGA (sugars k3 d10 k3, PS) as the sequence, how does the target mRNA inhibition (1 µM) read?
Answer: 33%

Question: With ATATACTGTCCCAGCA (sugars k3 d10 k3, PS) as the sequence, how does the target mRNA inhibition (1 µM) read?
Answer: 43%

Question: How did the target mRNA inhibition (1 µM) turn out when ATATATACCTGTTGCC (sugars k3 d10 k3, PS) was run?
Answer: 28%

Question: Which target mRNA inhibition (1 µM) does the source give for ATATCCAGTAGGTGTG (sugars k3 d10 k3, PS) here?
Answer: 55%

Question: ATATGGGATGAGGTAA (sugars k3 d10 k3, PS) was tested. Which target mRNA inhibition (1 µM) did it give?
Answer: 37%

Question: Which target mRNA inhibition (1 µM) does the source give for “ATATTCTGTGGCATGG (sugars k3 d9 k3 e1, PS)” here?
Answer: 58%

Question: ATATTCTGTGGCATGG (sugars k3 d10 k3, PS) was tested. Which target mRNA inhibition (1 µM) did it give?
Answer: 69%

Question: ATATTGTTTAGCTGAT (sugars k3 d10 k3, PS) was tested. Which target mRNA inhibition (1 µM) did it give?
Answer: 14%

Question: With ATCAAAATGGTGGCGA (sugars k3 d10 k3, PS) as the sequence, how does the target mRNA inhibition (1 µM) read?
Answer: 20%

Question: “ATCAAGACATTCTAGC (sugars kkdddddddddkekek, PS)” was tested. Which target mRNA inhibition (1 µM) did it give?
Answer: 30%

Question: With ATCATACCACATACCC (sugars k3 d10 k3, PS) as the sequence, how does the target mRNA inhibition (1 µM) read?
Answer: 45%

Question: Which target mRNA inhibition (1 µM) does the source give for ATCATCGATGGAAGAA (sugars k3 d10 k3, PS) here?
Answer: 30%

Question: Which target mRNA inhibition (1 µM) does the source give for ATCCAGTAGGTGTGTT (sugars k3 d10 k3, PS) here?
Answer: 41%

Question: For ATCCATATTCCCTGAT (sugars k3 d10 k3, PS), which target mRNA inhibition (1 µM) is on record?
Answer: 26%

Question: For ATCCTACATGTAAGGT (sugars k3 d10 k3, PS), which target mRNA inhibition (1 µM) is on record?
Answer: 24%

Question: ATCGATGGAAGAAGTG (sugars k3 d10 k3, PS) was tested. Which target mRNA inhibition (1 µM) did it give?
Answer: 39%

Question: For ATCGGCTGGATATACT (sugars k3 d10 k3, PS), which target mRNA inhibition (1 µM) is on record?
Answer: 10%

Question: ATCTAGAATTAAGGGC (sugars k3 d10 k3, PS) was tested. Which target mRNA inhibition (1 µM) did it give?
Answer: 41%

Question: With ATCTAGCAACCTCTAT (sugars k3 d10 k3, PS) as the sequence, how does the target mRNA inhibition (1 µM) read?
Answer: 12%

Question: “ATCTATCAGACTTCTT (sugars k3 d1 m1 d8 k3, PS)” was tested. Which target mRNA inhibition (1 µM) did it give?
Answer: 34%

Question: “ATCTCTGGGACCAAGG (sugars kkdddddddddkekek, PS)” was tested. Which target mRNA inhibition (1 µM) did it give?
Answer: 65%

Question: ATCTTAAGGATCATTG (sugars k3 d10 k3, PS) was tested. Which target mRNA inhibition (1 µM) did it give?
Answer: 7%

Question: Which target mRNA inhibition (1 µM) does the source give for “ATCTUATAAGACTATA (sugars k3 d1 m1 d8 k3, PS)” here?
Answer: 35%

Question: How did the target mRNA inhibition (1 µM) turn out when ATGACATAGACATGTG (sugars k3 d10 k3, PS) was run?
Answer: 23%

Question: Which target mRNA inhibition (1 µM) does the source give for ATGATGTTCATGGCTT (sugars k3 d10 k3, PS) here?
Answer: 72%

Question: With ATGATTGAATTCACTA (sugars k3 d10 k3, PS) as the sequence, how does the target mRNA inhibition (1 µM) read?
Answer: 33%

Question: ATGCAGCTATAGGTAG (sugars k3 d10 k3, PS) was tested. Which target mRNA inhibition (1 µM) did it give?
Answer: 41%

Question: ATGCATAAGAGATGAG (sugars k3 d10 k3, PS) was tested. Which target mRNA inhibition (1 µM) did it give?
Answer: 30%

Question: How did the target mRNA inhibition (1 µM) turn out when ATGCCAAGCTTTGTGT (sugars k3 d10 k3, PS) was run?
Answer: 50%

Question: “ATGCTACTTGAACAGT (sugars k3 d9 k3 e1, PS)” was tested. Which target mRNA inhibition (1 µM) did it give?
Answer: 50%

Question: Which target mRNA inhibition (1 µM) does the source give for ATGCTAGTAATTGCAT (sugars k3 d10 k3, PS) here?
Answer: 16%

Question: ATGGAAACATGCTTGG (sugars k3 d10 k3, PS) was tested. Which target mRNA inhibition (1 µM) did it give?
Answer: 48%

Question: With “ATGGCTACAGATTGGA (sugars k3 d9 k3 e1, PS)” as the sequence, how does the target mRNA inhibition (1 µM) read?
Answer: 65%

Question: Which target mRNA inhibition (1 µM) does the source give for ATGGCTTAATTTTCGG (sugars k3 d10 k3, PS) here?
Answer: 33%

Question: ATGTCCAGGTTGAGAT (sugars k3 d10 k3, PS) was tested. Which target mRNA inhibition (1 µM) did it give?
Answer: 55%

Question: For ATGTTCATGGCTTTGC (sugars k3 d10 k3, PS), which target mRNA inhibition (1 µM) is on record?
Answer: 73%
